# Marks after values point to notes of the source that are not given here. Residues, ends and D or L forms follow the SMILES beside them.
# Legend:
# Assay type in all cases: in vivo
# [1] = system: Spodoptera littoralis; test: Binary choice glass-fiber disc feeding bioassay (Feeding Index); conditions: for Feeding response in words, in combination with glucose: glucose 0.05M; for Feeding response in words, in combination with glucose / Feeding response in words, in combination with sucrose: 100, 1000 and 10,000 ppm; for Feeding Index: n = 15; for Feeding response in words, in combination with sucrose: sucrose 0.05M
# Method: All experiments were done on the final stage larvae of Spodoptera littoralis. Prior to the experiment, the insects were deprived of food for 2 hours. This has been calculated as a period when most insects would commence feeding. Thus, the food from the previous meal has started to pass into and through the gut. The initial experiment investigated whether the insects could “taste” the plant preparations or extracts and whether they stimulated or deterred feeding. […] A negative value indicates a phagostimulant and a positive value indicates an appetite suppressant. Experiments are usually repeated with between 10-20 insects and the data are analysed using the Wilcoxon matched pairs test. A series of controls were used at the start of the experiment to illustrate the difference in the response of the larvae to sucrose and glucose both tested at 0.05M. Results have been presented as means.
# [2] = system: larvae of Spodoptera littoralis; test: Behavioral response of cannulated insects to glucose (latency, meal duration, time to second meal); conditions: glucose treated disc, solvent water
# Method: Material and methods. Final stage larvae were removed from food and after 2 hours, they were cannulated via the oral cavity with […] of a test solution, with water used as a control. The extracts were tested at 10,000 ppm, 1,000 ppm and 100 ppm. The insects were then placed in a Petri dish with a glucose treated glass-fiber disc. The time taken for the insects to start a meal (latency), the duration of a meal (meal duration) and the time taken to take the second meal were recorded. This provides information about whether the extracts once consumed would delay feeding, whether the extracts would alter the duration of a meal once it had started, and whether the time to the second meal would be altered. […] The time to the start of a meal was extended, when compared with the water control, after cannulation with Aloe and Ginseng. Aloe acted as stimulants in the glass-fiber disc bioassays, whereas Ginseng was a potent suppressant. Thus, the Ginseng could be having a negative activity on time to feed, whereas the response to Aloe could be because of a “positive” response. The end effect is the same in that both groups caused an increase in the latency to feed. […] None of the extracts influenced the duration of the first recorded meal.
# [3] = system: medial sensilla of Spodoptera littoralis larvae; test: Electrophysiology: neural response of the medial sensilla after cannulation; conditions: for Impulses per second from the medial styloconic sensilla, stimulus C: stimulus KCl (0.05M); for Impulses per second from the medial styloconic sensilla, stimulus P: stimulus amino acid mixture; for Impulses per second from the medial styloconic sensilla, stimulus G: stimulus glucose (0.05M); for Impulses per second from the medial styloconic sensilla, stimulus S: stimulus sucrose (0.05M)
# Source text: Insects use sensilla on their mouthparts to taste their food. These sensilla contain neurones that respond to compounds in their food. An electrophysiological bioassay has been developed to record the neural impulses from the four neurones in each sensilla. […] Previous experiments have shown that the responsiveness of the insects can be influenced by the diet an insect has been reared on and previous exposure to a compound. The physiological condition of the insect can also influence the responsiveness of these neurones. In these experiments, we […] classify the neurones down to specific neurones but this requires some further experiments not undertaken in this study. […] Each larva was tested with KCl (C=0.05M) as a control, sucrose (S=0.05M), glucose (G=0.05M) and amino acid mix (P=0.05M). A set of experiments were undertaken on a control non-cannulated group of insects. […] Prior to the experiment, the insects had been standardized as in the behavioral experiments.
# [4] = in combination with glucose 0.05M, extract 100 ppm
# [5] = in combination with glucose 0.05M, extract 1,000 ppm
# [6] = in combination with glucose 0.05M, extract 10,000 ppm
# [7] = in combination with sucrose 0.05M, extract 100 ppm
# [8] = in combination with sucrose 0.05M, extract 1,000 ppm
# [9] = in combination with sucrose 0.05M, extract 10,000 ppm
# [10] = 30 min after cannulation at 1000 ppm
# [11] = 1 h after cannulation at 1000 ppm
SMILES,"Feeding response in words, in combination with glucose [1]","Feeding Index [1, 4]","Feeding Index [1, 5]","Feeding Index [1, 6] [%]","Feeding Index [1, 7] [%]","Feeding Index [1, 8] [%]","Feeding Index [1, 9] [%]","Feeding response in words, in combination with sucrose [1]",Latency ([2]; concentration 0.1k (100 ppm)) [min],Meal duration ([2]; concentration 0.1k (100 ppm)) [min],Time to 2nd meal ([2]; concentration 0.1k (100 ppm)) [min],"Latency ([2]; concentration 1k (1,000 ppm)) [min]","Meal duration ([2]; concentration 1k (1,000 ppm)) [min]","Time to 2nd meal ([2]; concentration 1k (1,000 ppm)) [min]","Latency ([2]; concentration 10k (10,000 ppm)) [min]","Meal duration ([2]; concentration 10k (10,000 ppm)) [min]","Time to 2nd meal ([2]; concentration 10k (10,000 ppm)) [min]","Impulses per second from the medial styloconic sensilla, stimulus C [3, 10] [impulses per second]","Impulses per second from the medial styloconic sensilla, stimulus P [3, 10] [impulses per second]","Impulses per second from the medial styloconic sensilla, stimulus G [3, 10] [impulses per second]",also measured
COC(=O)[C@H](Cc1ccccc1)NC(=O)[C@@H](N)CC(=O)O [Aspartame] (H-Asp-Phe-OMe),stimulated feeding at lower concentrations,−25* %,−31* %,−24,−15,14,15,not significant,21,17,15,24,12,15,20,12,17,10,24,45,"Impulses per second from the medial styloconic sensilla, stimulus S [3, 10]: 57 impulses per second; Impulses per second from the medial styloconic sensilla, stimulus C [3, 11]: 12 impulses per second; Impulses per second from the medial styloconic sensilla, stimulus P [3, 11]: 24 impulses per second; Impulses per second from the medial styloconic sensilla, stimulus G [3, 11]: 25 impulses per second; Impulses per second from the medial styloconic sensilla, stimulus S [3, 11]: 48 impulses per second"
O=C1NS(=O)(=O)c2ccccc21 [Saccharin],stimulated feeding at lower concentrations,−24* %,−25* %,−18,−16,−5,5,not significant,24,16,11,24,14,18,25,14,18,9,29,45,"Impulses per second from the medial styloconic sensilla, stimulus S [3, 10]: 65 impulses per second; Impulses per second from the medial styloconic sensilla, stimulus C [3, 11]: 15 impulses per second; Impulses per second from the medial styloconic sensilla, stimulus P [3, 11]: 47 impulses per second; Impulses per second from the medial styloconic sensilla, stimulus G [3, 11]: 28 impulses per second; Impulses per second from the medial styloconic sensilla, stimulus S [3, 11]: 48 impulses per second"
OC[C@H]1O[C@@](CO)(O[C@H]2O[C@H](CO)[C@@H](O)[C@H](O)[C@H]2O)[C@@H](O)[C@@H]1O [Sucrose],–,–,–,–,–,–,–,–,–,–,–,–,–,–,–,–,–,–,–,–,"Feeding Index ([1]; control disc sucrose 0.05M versus treatment disc sucrose 0.05M, 18 hours): 10.7%; Feeding Index ([1]; control disc sucrose 0.05M versus untreated treatment disc, 18 hours): 46.3* %; Phagostimulant potency in words ([1]; sucrose versus glucose, both 0.05M): more potent phagostimulant to S. littoralis than glucose"
